Assays:
Type in all cases: in vivo
[1] = system: Green Peach Aphid (Myzus persicae); assay: Green peach aphid through systemic means, artificial diet under membrane; settings: 72 h, pipetted into aphid diet, 3 days, read-out: mortality in comparison with untreated controls
Source text: II.6 Activity Against Green Peach Aphid (Myzus persicae)
For evaluating control of green peach aphid (Myzus persicae) through systemic means the test unit consisted of 96-well-microtiter plates containing liquid artificial diet under an artificial membrane.
The compounds were formulated using a solution containing 75% v/v water and 25% v/v DMSO. Different concentrations of formulated compounds were pipetted into the aphid diet, using a custom built pipetter, at two replications. After application, 5 to 8 adult aphids were placed on the artificial membrane inside the microtiter plate wells. The aphids were then allowed to suck on the treated aphid diet and incubated at about 23+1° C. and about 50+5% relative humidity for 3 days. Aphid mortality and fecundity was then visually assessed.

[2] = system: Vetch Aphid (Megoura viciae); assay: Vetch aphid, bean leaf disks in microtiterplates; settings: foliar, 144 h, test solution 2500 mg/L, leaf disks sprayed, 6 days
Method: II.4 Vetch Aphid (Megoura viciae)
The active compounds were formulated in 1:3 (vol:vol) DMSO:water with different concentrations of formulated compounds.
Bean leaf disks were placed into microtiterplates filled with […] and 2.5 ppm OPUS™ (from BASF SE, conazole). The leaf disks were sprayed with 2.5 μl of the test solution and 5 to 8 adult aphids were placed into the microtiterplates which were then closed and kept at 23±1° C. and 50±5% relative humidity under fluorescent light for 6 days. Mortality was assessed on the basis of vital, reproduced aphids. Aphid mortality and fecundity was then visually assessed.

[3] = system: Cowpea Aphid (Aphis craccivora); assay: Cowpea aphid, sprayed potted cowpea plants; settings: population reduction assessed after 24, 72 and 120 hours, read-out: mortality in comparison with untreated controls
Method: II.3 Cowpea Aphid (Aphis craccivora)
The active compounds were formulated in 50:50 (vol:vol) acetone:water. The test solution was prepared at the day of use.
Potted cowpea plants colonized with 100-150 aphids of various stages were sprayed after the pest population had been recorded. Population reduction was assessed after 24, 72, and 120 hours.

[4] = system: Cotton Aphid (Aphis gossypii, mixed life stages); assay: Cotton aphid, method a (cotyledon dip); settings: 120 h, cotyledons dipped, counts after 5 days, read-out: mortality in comparison with untreated controls
Source text: II.1 Cotton Aphid (Aphis gossypii, Mixed Life Stages)
The active compounds were formulated in 50:50 (vol:vol) acetone: water and 100 ppm Kinetica™ (from Helena Chemical Co.) surfactant.
Cotton plants at the cotyledon stage (one plant per pot) were infested by placing a heavily infested leaf from the main colony on top of each cotyledon. The aphids were allowed to transfer to the host plant overnight, and the leaf used to transfer the aphids was removed. The cotyledons were dipped in the test solution and allowed to dry. After 5 days, mortality counts were made.

[5] = system: Green Peach Aphid (Myzus persicae, mixed life stages); assay: Green peach aphid, method a (leaf dip, pepper plants); settings: foliar, 120 h, leaves dipped, after 5 days, read-out: mortality in comparison with untreated controls
Source text: II.2 Green Peach Aphid (Myzus persicae, Mixed Life Stages)
The active compounds were formulated in 50:50 (vol:vol) acetone:water and 100 ppm Kinetica™ (from Helena Chemical Co.) surfactant.
Pepper plants in the 2nd leaf-pair stage (variety ‘California Wonder’) were infested with approximately 40 laboratory-reared aphids by placing infested leaf sections on top of the test plants. The leaf sections were removed after 24 hr. The leaves of the intact plants were dipped into gradient solutions of the test compound and allowed to dry. Test plants were maintained under fluorescent light (24 hour photoperiod) at about 25° C. and 20-40% relative humidity. Aphid mortality on the treated plants, relative to mortality on check plants, was determined after 5 days.

O=C(Nc1cccnc1)c1conc1C1CC1 [Example 15, 3-Cyclopropyl-isoxazole-4-carboxylic acid pyridin-3-ylamide]
mortality at 2500 ppm [1]: 100% | mortality at 2500 µg/mL [2]: ≥ 90% | mortality at 300 ppm [3]: ≥ 90% | mortality at 300 ppm [4]: ≥ 90% | mortality at 300 ppm [5]: ≥ 90%
